Data reported in patent CN108947977A, “3r-吲哚甲基-6r-酰胺侧链氨基酸修饰的哌嗪-2,5-二酮，其合成，活性和应用” (Capital Medical University, priority 2017, dated 2018).

Tests used:
S180 = test: Anti-tumour growth activity in S180 tumour-bearing mice (tumour weight); assay type: in vivo, ICR小鼠; settings: oral, 0.5μmol/kg/天; for Inhibition of tumour growth (result in words): 12 days, S180 mice; for Anti-tumour growth activity compared with compound 8 (5μmol/kg/天): compound 8 dose 10-fold higher
Lewis小鼠肺癌细胞(LLC) = test: Anti-metastasis activity: Lewis lung carcinoma (LLC) implanted in C57BL/6 mice, lung metastasis nodules counted; assay type: in vivo, C57BL/6小鼠; settings: oral, 0.5μmol/kg/天; for Inhibition of tumour lung metastasis (result in words): 12 days, LLC-bearing C57BL/6 mice; for Anti-metastasis activity compared with RGDS (20μmol/kg/天) and compound 8 (5μmol/kg/天): RGDS dose 40-fold higher, compound 8 dose 10-fold higher
二甲苯引起的小鼠耳肿胀 = test: Anti-inflammatory activity: xylene-induced mouse ear swelling; assay type: in vivo, ICR小鼠; settings: oral, 0.5μmol/kg; for Inhibition of xylene-induced mouse ear swelling (result in words): xylene 30 min after dosing, ears taken 2 h later; for Anti-inflammatory activity compared with compound 8 (5μmol/kg): compound 8 dose 10-fold higher

Compound	Inhibition of tumour growth (result in words) (S180)	Anti-tumour growth activity compared with compound 8 (5μmol/kg/天) (S180)	Inhibition of tumour lung metastasis (result in words) (Lewis小鼠肺癌细胞(LLC))	Anti-metastasis activity compared with RGDS (20μmol/kg/天) and compound 8 (5μmol/kg/天) (Lewis小鼠肺癌细胞(LLC))	Inhibition of xylene-induced mouse ear swelling (result in words) (二甲苯引起的小鼠耳肿胀)	Anti-inflammatory activity compared with compound 8 (5μmol/kg) (二甲苯引起的小鼠耳肿胀)
NC(=O)CC[C@H](N)C(=O)NCCCCCC(=O)NCCCC[C@H]1NC(=O)[C@@H](Cc2c[nH]c3ccccc23)NC1=O [化合物6a, (3R,6R)-3-(Gln-氨基正己酰基氨基正丁基)-6-(吲哚-3-甲基)-哌嗪-2,5-二酮]	有效地抑制肿瘤生长	没有显著性差异	有效地抑制肿瘤肺转移	没有显著性差异	有效地抑制二甲苯引起的小鼠耳肿胀	没有显著性差异
NC(=O)C[C@H](N)C(=O)NCCCCCC(=O)NCCCC[C@H]1NC(=O)[C@@H](Cc2c[nH]c3ccccc23)NC1=O [化合物6b, (3R,6R)-3-(Asn-氨基正己酰基氨基正丁基)-6-(吲哚-3-甲基)-哌嗪-2,5-二酮]	有效地抑制肿瘤生长	没有显著性差异	有效地抑制肿瘤肺转移	没有显著性差异	有效地抑制二甲苯引起的小鼠耳肿胀	没有显著性差异
